A short description of series [1]: Hydrolytic stability monitored by RP-HPLC. Format: physicochemical. The settings on record: 0.15 M KCl; for Hydrolytic stability at pH 2: 0.01 M HClaq, pH 2, 25 °C; for Hydrolytic stability at pH 7.4: 50 mM PBS, pH 7.4, 25 °C. The text has this: In particular, the transformation of the DHPIQ-2-aldehyde via Mannich reaction (8b,c) opens the road to future developments of new water-soluble antiproliferative DHPIQ derivatives endowed with the ability to inhibit P-gp and reverse MDR.

Series [2] in a line: Lipophilicity by RP-HPLC (polycratic capacity factor). Format: physicochemical. The settings on record: capacity factor extrapolated to 100% aqueous mobile phase, aqueous component pH 4.7. Here is the method:
To quantitate the effect of hydrophobicity on the biological activity of the examined compounds, a relative lipophilicity scale was determined by RP-HPLC [20]. The polycratic capacity factor (log k′w) for each compound in Table 2 was experimentally determined (details in the experimental section) and compared with 1-octanol–water partition coefficient calculated (Clog P) with ACDLabs software (release 10.0; Advanced Chemistry Development, Inc., Toronto, ON, Canada). Log k′w values are quite well correlated with Clog Ps for the whole series (r^2 = 0.791). However, omitting from the regression the two Mannich bases 8b and 8c, which, due to their basicity (pKas about 6.9, estimated by ACDLabs software), should be predominantly in the protonated forms at pH 4.7 (i.e., the pH of the aqueous component of the mobile phase in RP-HPLC), the correlation slightly improves (r^2 = 0.859), providing a linear equation with a slope equal to +0.8 and an intercept of about −0.1.
The lipophilicity parameters were determined by an RP-HPLC technique. Methanol solution of DHPIQ derivatives (1 mg/mL) were analyzed by an Agilent 1260 infinite HPLC system (Agilent Technologies, Milan, Italy) equipped with a diode array detector (DAD), and a Phenomenex, Kinetex 5 μ, C18, 100 Å (150 × 4.6 mm), and eluted with different percentage of mobile phase composition (0.05 increments of MeOH volume fractions in 20 mM ammonium formate buffer at pH 4.7 or water 0.1% v/v TFA, with φ ranging between 0.85 and 0.30). The chromatographic measurements were carried out at 25 ± 1 °C at a flow rate of 1 mL·min^−1 and at 265, 290, 320 nm wavelengths. The log of capacity factors (log k′ = log (tR − t0)/t0) of each compound at different mobile phase compositions was calculated; tR represents the retention time of the solute and t0 is the column dead time, measured as the elution time of a KNO3 solution in MeOH. For each compound, the log k′ values increased linearly with decreasing MeOH volume fraction. The logarithms of the capacity factor extrapolated to 100% aqueous mobile phase (log k′w) were calculated from the linear regressions on at least five data points (r^2 > 0.9984).

Series [3] addresses T1, human serum albumin (HSA) (Homo sapiens, UniProt P02768). In words: Binding affinity to immobilized HSA by surface plasmon resonance (SPR).
Protocol: (§3) By plotting the response at equilibrium, the dissociation constant (KD) value was determined for each test compound.
(§4) Fatty acid-free HSA (A3782 from Merck, KGaA Sigma-Aldrich, Darmstadt, Germany) was applied to functionalize the surface of a COOH V sensor chip (Pall FortèBio, Fremont Boulevard, CA, USA), by using amine coupling (EDC/NHS). HSA aqueous stock solution was diluted at the final concentration of 50 μg·mL^−1 in 10 mM sodium acetate buffer (pH 5.0), and immobilization in peripheral flow cells 1 and 3 (unmodified dextran surface in middle flow cell 2 used as a reference) at a final apparent level of about 5000 RU was achieved by applying the following protocol: injection of EDC/NHS (freshly mixed 0.4 M EDC and 0.1 M NHS) 1:1 v/v at a flow of 25 μL·min^−1 for 4 min; injection of HSA solution at a flow of 25 μL·min^−1 for 8 min; capping on unreacted activated carboxyl groups by injection of 1 M ethanolamine solution (pH 9) at a flow of 25 μL·min^−1 for 8 min. The functionalized surface was then treated with repeated injection of 4 M NaCl, as a regenerating reagent, and conditioned overnight prior to use with pH 7.4 PBS (10 mM NaH2PO4 and 150 mM NaCl) as a running buffer. Each cycle (without the need of regeneration) for binding assay to HSA was carried out in PBS/4% v/v DMSO and consisted of a run buffer injection (60 s), injection of analyte single concentration for 120 s (ranging from 1 to 200 μM) at a flow 20 μL·min^−1, and a dissociation phase for 150 s (flow 20 μL·min^−1). Each measurement was performed at least in triplicate and analyzed by using QDAT software, vers 2.2.0.7 (non-linear regression analysis of 1:1 stoichiometric reversible binding model), and double referencing.
In series [4] the target is T2, P-glycoprotein (P-gp) (Homo sapiens, UniProt P08183). In words: Calcein-AM transport inhibition in MDCK-MDR1 cells overexpressing P-gp. To be noted: for IC50: P-gp, IC50, MDCK-MDR1 cells, calcein-AM, mean (SD), at least two independent experiments in triplicate.
Protocol: (§5) The P-gp inhibitory potency of eight DHPIQs was evaluated by measuring the transport inhibition of calcein-AM, a profluorescent P-gp substrate, in the MDCK-MDR1 cell line overexpressing P-gp. Moreover, to evaluate the MRP1 inhibitor activity, the same compounds were screened in MDCK-MRP1 cells overexpressing MRP1.
(§6) According to previously described assays [9], MDCK-MDR1 and MDCK-MRP1 cell lines (50,000 cells per well) were seeded into a black CulturePlate 96-well plate with 100 μL medium and allowed to become confluent overnight. […] Saline buffer (100 μL) was added to each well, and the plate was read by a PerkinElmer Victor3 spectrofluorimeter at excitation and emission wavelengths of 485 nm and 535 nm, respectively. In these experimental conditions, calcein cell accumulation in the absence and in the presence of the test compound was evaluated, and the fluorescence basal level was estimated by untreated cells. In the treated wells, the increase of fluorescence with respect to basal level was measured. IC50 values were determined by interpolating the curve of fluorescence increase percentage versus log [conc.].
Series [5] relates to A549 (lung adenocarcinoma) cells. The series is described as follows: MTT antiproliferative (cytotoxicity) assay, A549 cells. To be noted: mean (SD), triplicate, n.a. = not active at 100 μM, >100 = less than 60% inhibition at 100 μM. Format: cell-based, Human.
Protocol: The antiproliferative activity of the newly synthesized compounds, along with some previously reported analogs, and camptothecin and doxorubicin as positive controls was determined by the MTT (3-(4,5-dimethylthiazol-2-yl)-2,5-diphenyltetrazolium bromide) assay. […] Each concentration of the test compound was assayed in triplicate. […] Wells with the 0.1% v/v DMSO were used as controls. After incubation, 20 μL of MTT (5 mg·mL^−1) was added to each well and the plates were incubated for a further 2 h. Next, media were removed from the plates, and 100 μL of DMSO was added to each well to dissolve the formed formazan crystals. Using a flatbed analyzer (Victor^3, PerkinElmer, Waltham, MA, USA), the optical density was determined at 530 nm, minus the measured background absorbance at 620 nm.
Series [6] in a line: Kinetic solubility in PBS by RP-HPLC. Format: physicochemical. To be noted: phosphate buffered saline, 25 °C, kinetic from dmso stock. As for the experimental part: Sample solution at 200 μM in PBS (50 mM, pH 7.4, KCl 0.15 M) from a 10 mM stock solution in DMSO was incubated at room temperature (25 ± 1 °C) for 2 h, following shaking of the suspension on an orbital shaker at 250 rpm, and then separated by […]. Immediately after the filtration step, 100 µL of filtrate was transferred into 100 µL of 1:1 (v/v) mixture of DMSO and PBS (50 mM, pH 7.4, KCl 0.15 M), to avoid precipitation from the saturated solution and analyzed by HPLC. The peak area was plotted against a calibration curve of the tested compound in MeOH [21]. Analytical conditions were as follows. Mobile Phase: MeOH/ammonium formate 20 mM pH 4.7 (70:30, 75:25); MeOH 0.1% TFA/H2O 0.1% TFA (70:30, 60:40); stationary phase: Phenomenex, Kinetex 5 μ, C18, 100 Å (150 × 4.6 mm); flux: 1 mL/min; injection: 10 μL, 265, 290, 320 nm wavelength. HPLC analyses were performed on an Agilent HPLC 1260 Infinity Series Integrated System (Agilent Technologies, Milan, Italy).

Series [7] deals with RD (rhabdomyosarcoma) cells. In words: MTT antiproliferative (cytotoxicity) assay, RD cells. Format: cell-based, Human. The settings on record: 72 h, mean (SD), triplicate, n.a. = not active at 100 μM, >100 = less than 60% inhibition at 100 μM. Here is the method: (§1) The newly synthesized 1-Ph-DHPIQs, along with the previously reported derivatives 4a, 4c, 6a and 6c, with camptothecin and doxorubicin as positive controls, were tested at the maximum concentration of 100 μM for their antiproliferative activity, using an MTT assay on RD, HCT116, HeLa and A549 cancer cell lines. Compounds showing more than 50% inhibition were tested at lower scalar concentrations, and IC50 values were calculated by interpolation of the dose-response curves (Table 1). […]
(§2) The antiproliferative activity of the newly synthesized compounds, along with some previously reported analogs, and camptothecin and doxorubicin as positive controls was determined by the MTT (3-(4,5-dimethylthiazol-2-yl)-2,5-diphenyltetrazolium bromide) assay. The cells were seeded at a concentration of 1 × 10 ^4 cells/200 μL in a 96-well plate and cultured at 37 °C in a humidified atmosphere with 5% CO2. After 24 h of incubation, scalar concentrations of each test compound (100 to 1.56 μmol·L^−1) were added to the cancer cell culture and the cells were then cultured under the same conditions for 72 hr. Each concentration of the test compound was assayed in triplicate. […] Wells with the 0.1% v/v DMSO were used as controls. After incubation, 20 μL of MTT (5 mg·mL^−1) was added to each well and the plates were incubated for a further 2 h. Next, media were removed from the plates, and 100 μL of DMSO was added to each well to dissolve the formed formazan crystals. Using a flatbed analyzer (Victor^3, PerkinElmer, Waltham, MA, USA), the optical density was determined at 530 nm, minus the measured background absorbance at 620 nm. The concentration value, which causes 50% inhibition of cell population growth (IC50), was determined from the dose-dependent curves using the OriginPro 9.0 software.

Series [8] concerns HeLa (adenocarcinoma of the cervix uterus) cells. In words: MTT antiproliferative (cytotoxicity) assay, HeLa cells. Format: cell-based, Human. To be noted: 72 h, mean (SD), triplicate, n.a. = not active at 100 μM, >100 = less than 60% inhibition at 100 μM. As for the experimental part: as §1, §2
Series [9] has as its target T1, human serum albumin (HSA). The settings on record: 10 μM, pH 7.4.
Protocol: as §3, §4
Series [10] deals with HCT116 (colon cancer) cells. In words: MTT antiproliferative (cytotoxicity) assay, HCT116 cells. Format: cell-based, Human. The settings on record: mean (SD), triplicate, n.a. = not active at 100 μM, >100 = less than 60% inhibition at 100 μM. As for the experimental part:
as §1, §2

In series [11] the target is multidrug-resistance-associated protein-1 (MRP1) (Homo sapiens, UniProt P33527). In words: Calcein-AM transport inhibition in MDCK-MRP1 cells overexpressing MRP1.
Protocol: as §5, §6
In series [12] the test system is A549 (lung adenocarcinoma) cells. The settings on record: mean (SD), cited from earlier work.
Series [13] has as its system RD (rhabdomyosarcoma) cells. To be noted: mean (SD), cited from earlier work.
Series [14] deals with HCT116 (colon cancer) cells. To be noted: mean (SD), cited from earlier work.
In series [15] the test system is HeLa (adenocarcinoma of the cervix uterus) cells. The settings on record: mean (SD), cited from earlier work.
The next series addresses P-gp versus MRP1 (Homo sapiens, UniProt P08183). In words: Calcein-AM transport inhibition in MDCK-MDR1 cells overexpressing P-gp. The settings on record: human, MDCK-MDR1 cells and MDCK-MRP1 cells, probe calcein-AM.
In series [16] the target is T2, P-glycoprotein (P-gp). Set-up: expressed in transfected cells; host or cells: MDCK-MDR1 (gift from Prof. P. Borst, NKI-AVL); method as in PMID 29802687. To be noted: MDCK-MDR1 cells; ref [9]; cited from earlier work.
The mark [17] stands for this setting: aqueous buffer, PBS (50 mM, pH 7.4, 0.15 M KCl) at 25 ± 1 °C, read-out: S (solubility).
[18] abbreviates: pH 7.4, aqueous buffer, ‘practically insoluble’ threshold of US and European Pharmacopoeia, read-out: Solubility category in buffered water solution at neutral pH.
[19] abbreviates: Homo sapiens, Rhabdomyosarcoma cell.

The term Kd denotes the equilibrium constant for the complex coming apart. Read a low Kd as higher affinity. In general, IC50 refers to the midpoint of a concentration-inhibition curve. In general, solubility refers to the dissolved amount per volume that the medium holds.

“And” between values parts separate entries of the source, which are not always exact repeats. Equal values may be shown once. Read-outs that look alike come from different tables or passages of the source. Some results are limits rather than exact numbers.

multidrug-resistance-associated protein-1 (MRP1), sequence (P33527 whole entry): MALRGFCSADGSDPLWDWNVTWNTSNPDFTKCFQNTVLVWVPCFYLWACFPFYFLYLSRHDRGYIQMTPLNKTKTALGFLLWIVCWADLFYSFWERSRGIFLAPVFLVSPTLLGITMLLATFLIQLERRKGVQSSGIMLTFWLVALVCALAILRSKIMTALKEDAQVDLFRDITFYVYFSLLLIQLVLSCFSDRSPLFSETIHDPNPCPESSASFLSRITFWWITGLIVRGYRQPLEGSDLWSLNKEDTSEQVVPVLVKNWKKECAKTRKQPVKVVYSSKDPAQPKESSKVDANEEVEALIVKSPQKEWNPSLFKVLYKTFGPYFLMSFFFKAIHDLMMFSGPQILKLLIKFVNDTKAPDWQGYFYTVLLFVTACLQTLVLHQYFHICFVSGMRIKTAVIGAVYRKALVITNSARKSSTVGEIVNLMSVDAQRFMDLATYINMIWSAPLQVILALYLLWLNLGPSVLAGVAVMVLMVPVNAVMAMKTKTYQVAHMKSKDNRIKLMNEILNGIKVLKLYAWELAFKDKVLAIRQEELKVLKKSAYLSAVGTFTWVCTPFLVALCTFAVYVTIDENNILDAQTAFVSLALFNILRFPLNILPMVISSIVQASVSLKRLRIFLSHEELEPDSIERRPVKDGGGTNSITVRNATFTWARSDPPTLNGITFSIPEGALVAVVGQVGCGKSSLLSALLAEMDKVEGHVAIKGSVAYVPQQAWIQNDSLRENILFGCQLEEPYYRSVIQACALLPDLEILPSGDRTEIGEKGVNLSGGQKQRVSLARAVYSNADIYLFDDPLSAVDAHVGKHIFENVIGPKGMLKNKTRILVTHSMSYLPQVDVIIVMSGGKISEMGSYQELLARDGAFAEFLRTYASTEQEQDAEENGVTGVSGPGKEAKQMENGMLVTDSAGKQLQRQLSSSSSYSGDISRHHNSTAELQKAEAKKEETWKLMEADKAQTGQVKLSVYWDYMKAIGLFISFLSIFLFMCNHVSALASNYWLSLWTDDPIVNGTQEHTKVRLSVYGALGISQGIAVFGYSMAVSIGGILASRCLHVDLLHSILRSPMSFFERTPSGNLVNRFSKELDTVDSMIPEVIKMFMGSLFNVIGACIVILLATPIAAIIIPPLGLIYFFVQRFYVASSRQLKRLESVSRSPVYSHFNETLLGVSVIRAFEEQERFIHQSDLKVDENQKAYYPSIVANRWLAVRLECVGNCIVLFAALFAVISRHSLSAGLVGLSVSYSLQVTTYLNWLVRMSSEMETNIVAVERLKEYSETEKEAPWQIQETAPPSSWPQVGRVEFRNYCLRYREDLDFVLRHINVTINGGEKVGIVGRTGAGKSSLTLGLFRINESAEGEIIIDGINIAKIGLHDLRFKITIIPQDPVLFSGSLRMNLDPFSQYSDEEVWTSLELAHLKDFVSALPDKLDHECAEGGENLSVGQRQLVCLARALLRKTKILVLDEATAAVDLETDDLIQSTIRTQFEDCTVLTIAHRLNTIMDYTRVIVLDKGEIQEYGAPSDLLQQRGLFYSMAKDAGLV
T1 sequence (P02768 25-609): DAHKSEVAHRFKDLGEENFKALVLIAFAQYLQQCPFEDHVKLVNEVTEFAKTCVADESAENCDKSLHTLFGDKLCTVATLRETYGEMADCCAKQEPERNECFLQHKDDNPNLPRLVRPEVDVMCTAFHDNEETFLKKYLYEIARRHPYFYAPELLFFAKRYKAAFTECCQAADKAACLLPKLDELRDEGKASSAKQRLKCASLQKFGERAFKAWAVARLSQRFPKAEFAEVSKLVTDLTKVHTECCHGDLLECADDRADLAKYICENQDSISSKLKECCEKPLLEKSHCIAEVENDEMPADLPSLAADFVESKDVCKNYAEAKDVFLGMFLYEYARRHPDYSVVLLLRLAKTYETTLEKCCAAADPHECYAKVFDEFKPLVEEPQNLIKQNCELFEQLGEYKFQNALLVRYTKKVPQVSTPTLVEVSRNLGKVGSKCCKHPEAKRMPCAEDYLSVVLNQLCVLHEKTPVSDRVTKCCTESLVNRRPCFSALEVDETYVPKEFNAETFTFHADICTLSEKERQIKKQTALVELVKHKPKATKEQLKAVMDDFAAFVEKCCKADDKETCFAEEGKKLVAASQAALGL
T2 sequence (P08183 whole entry): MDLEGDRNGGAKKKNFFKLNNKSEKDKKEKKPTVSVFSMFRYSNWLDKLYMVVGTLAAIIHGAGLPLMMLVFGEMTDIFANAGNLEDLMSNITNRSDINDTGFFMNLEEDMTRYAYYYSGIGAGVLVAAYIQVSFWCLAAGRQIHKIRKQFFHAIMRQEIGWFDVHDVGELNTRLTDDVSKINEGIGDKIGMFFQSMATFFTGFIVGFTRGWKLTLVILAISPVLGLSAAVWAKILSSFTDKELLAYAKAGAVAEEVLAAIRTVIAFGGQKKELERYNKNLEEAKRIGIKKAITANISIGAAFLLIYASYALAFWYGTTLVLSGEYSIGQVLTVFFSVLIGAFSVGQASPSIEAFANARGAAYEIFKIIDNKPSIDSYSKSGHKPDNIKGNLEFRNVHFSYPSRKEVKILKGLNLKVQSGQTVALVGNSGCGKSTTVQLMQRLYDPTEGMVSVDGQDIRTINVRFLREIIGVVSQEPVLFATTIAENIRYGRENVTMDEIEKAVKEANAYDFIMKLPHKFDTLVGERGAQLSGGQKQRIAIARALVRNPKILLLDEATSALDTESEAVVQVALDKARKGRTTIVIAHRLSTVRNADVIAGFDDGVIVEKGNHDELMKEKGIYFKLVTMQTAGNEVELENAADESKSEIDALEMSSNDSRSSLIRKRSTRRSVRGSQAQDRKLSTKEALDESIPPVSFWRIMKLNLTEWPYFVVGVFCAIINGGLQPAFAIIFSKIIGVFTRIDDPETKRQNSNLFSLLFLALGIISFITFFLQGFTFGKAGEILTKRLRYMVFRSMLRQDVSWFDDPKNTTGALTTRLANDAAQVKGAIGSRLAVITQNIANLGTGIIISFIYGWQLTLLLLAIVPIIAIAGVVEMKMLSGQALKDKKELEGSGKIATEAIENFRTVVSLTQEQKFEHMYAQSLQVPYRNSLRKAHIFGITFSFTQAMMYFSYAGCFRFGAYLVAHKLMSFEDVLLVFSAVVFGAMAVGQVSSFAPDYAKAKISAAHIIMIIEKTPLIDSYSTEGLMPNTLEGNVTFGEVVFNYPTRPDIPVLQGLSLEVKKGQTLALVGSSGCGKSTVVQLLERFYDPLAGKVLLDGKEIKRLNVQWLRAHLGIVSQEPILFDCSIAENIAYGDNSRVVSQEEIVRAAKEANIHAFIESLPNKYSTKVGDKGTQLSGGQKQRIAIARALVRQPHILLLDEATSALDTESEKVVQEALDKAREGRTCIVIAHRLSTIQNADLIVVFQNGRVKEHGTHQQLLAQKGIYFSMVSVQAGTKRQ
P-gp versus MRP1, sequence (P08183 whole entry): as above
Protocol for P-gp versus MRP1: as §5, §6

For `COc1ccc(-c2c(CN3CCOCC3)cn3c2-c2cc(OC)c(OC)cc2CC3)cc1` [Compound 8b, 8,9-Dimethoxy-1-(4-methoxyphenyl)-2-(morpholin-4-ylmethyl)-5,6-dihydropyrrolo[2,1-a]isoquinoline], the “Hydrolytic stability at pH 2” value in series [1] is given as “stable over 4 h”. In addition, the “Hydrolytic stability at pH 7.4” value in series [1] is listed as “stable over 4 h”. The “Log k′w” value in [2] was 3.86. In [3], this molecule showed a Kd of 19.3 µM. Besides, the IC50 on P-glycoprotein (P-gp) [4] was < 0.5 µM and 0.36 µM; in series [5] (Homo sapiens, A549, 72 h) it was 66 µM; in series [7] (setting [19]), 37.7 µM; in [8] (Homo sapiens, HeLa), 65.4 µM; in series [10] (Homo sapiens, HCT-116, 72 h), 56.4 µM; in series [11], 1.8 µM. The solubility at 2 h in series [6] (setting [17]) is 112 µM; in series [6] (setting [18]), below 100 µg/mL. Moreover, the “Predicted fraction bound to HSA” value in series [9] is recorded as “less than 40%”.

In the case of `COc1cc2c(cc1OC)-c1c(-c3ccc(Cl)cc3)c(C=O)cn1CC2` [Compound 4a], in series [2], the “Log k′w” value is 4.32. The IC50 in series [12] (ref [5]) is 38.6 µM; on P-glycoprotein (P-gp) [4], 25.3 µM; in series [13] (ref [5]) it was 17.6 µM; in series [14] (ref [5]) it was 22 µM; in series [11] it was 21.9 µM; in series [15] (ref [5]) it was 33 µM. The same molecule returned a Kd in series [3] of 1.6 µM. Besides, the “P-gp/MRP1 selectivity (toward P-gp)” value at P-glycoprotein (P-gp) [4] (ratio of MRP1 and P-gp inhibition potency) is “unselective”. In [6] (setting [17]), the solubility at 2 h was determined as 6.66 µM.

Regarding `CCOc1ccc(-c2c(CN3CCOCC3)cn3c2-c2cc(OCC)c(OCC)cc2CC3)cc1OCC` [Compound 8c, 1-(3,4-Diethoxyphenyl)-8,9-diethoxy-2-(morpholin-4-ylmethyl)-5,6-dihydropyrrolo[2,1-a]isoquinoline], the “Hydrolytic stability at pH 2” value in [1] is “stable”. Besides, the “Hydrolytic stability at pH 7.4” value in [1] is “stable”. Besides, the “Log k′w” value in [2] is recorded as 4.31. Also, the Kd in series [3] amounted to 26.9 µM. For the same molecule, the IC50 on P-glycoprotein (P-gp) [4] is < 0.5 µM and 0.45 µM; in series [5] (72 h) it was 20.8 µM; in series [5] (Homo sapiens, A549, 72 h), below 21 µM; in [7], < 20 µM and 18.6 µM; in [7] (setting [19]) it was below 21 µM; in [8], 17.5 µM. The IC50 was below 21 µM in series [8] (Homo sapiens, HeLa); 15.7 µM in [10] (72 h); below 21 µM in series [10] (Homo sapiens, HCT-116, 72 h); 12.1 µM in series [11]. The selectivity ratio at P-gp versus MRP1 was around 30. Besides, the solubility at 2 h in series [6] (setting [17]) is 41.7 µM; in series [6] (setting [18]), below 100 µg/mL. In addition, in series [9], the “Predicted fraction bound to HSA” value is recorded as “less than 40%”.

As for `CCOc1ccc(-c2c(C=O)cn3c2-c2cc(OCC)c(OCC)cc2CC3)cc1OCC` [Compound 4c], the IC50 in [12] (ref [8]) is 19.7 µM; in [13] (ref [8]), 21.3 µM; in [14] (ref [8]) it was 11.8 µM; in [15] (ref [8]), 44.5 µM; on P-glycoprotein (P-gp) [16], below 0.5 µM.

Source of the values: publication PMC11054433, “Nature-Inspired 1-Phenylpyrrolo[2,1-a]isoquinoline Scaffold for Novel Antiproliferative Agents Circumventing P-Glycoprotein-Dependent Multidrug Resistance” (Pharmaceuticals, 2024).
